Data: patent US20220268691A1, “MICROSCOPE ADAPTOR AND SAMPLE MOUNT FOR MAGNETICALLY ACTUATING SAMPLE” (University of Southern California, priority 2021, published 2022)

Tests used:
Pancreatic spheroids = assay: Magnetogel toxicity study (viability of pancreatic spheroids in M-gel); assay type: cell-based; conditions: M-gel/cells treated with 10 μL of gemcitabine; 96-well culture plate; sextuplet
Procedure: Pancreatic spheroids were grown on a 96-well culture plate. All measurements were performed in sextuplet (6×). The viability from these wells was compared against two controls: Matrigel/cells only, and M-gel/cells treated with 10 μL of gemcitabine (GEM), a common chemotherapeutic agent (as shown in FIG. 2B).

PDAC = conditions: GEM-based treatments; pancreatic cancer patients; cited from earlier work

Nc1ccn([C@@H]2O[C@H](CO)[C@@H](O)C2(F)F)c(=O)n1 [GEM, gemcitabine]
viability of cells (GEM control) (Pancreatic spheroids): cells killed | response to treatment observed in patients (PDAC): 37 % of patients
